Results: ChEMBL document CHEMBL5108012, “Discovery of 2,5-diphenyl-1,3,4-thiadiazole derivatives as HDAC inhibitors with DNA binding affinity” (Eur J Med Chem, 2022)
The source made the active and inactive calls. The rule behind the calls is not given here.

Experiments:
[1] = tested on: HCT-116; test: Antiproliferative activity against human HCT-116 cells after 48 hrs by CCK-8 assay; type: functional, cell-based; conditions: HCT-116, 48 h
[2] = target: Histone deacetylase (HDAC1 and HDAC2) (Homo sapiens, UniProt Q13547+Q92769); test: Inhibition of HDAC1/HDAC2 in human HeLa cell nuclear extract using Boc-Lys(Ac)-AMC as substrate and measured by fluorometric method; type: cell-based
[3] = tested on: HCT-116; test: Induction of apoptosis in human HCT-116 cells assessed as increase in cleaved caspase-3 expression at 0.17 to 1.5 uM incubated for 48 hrs by Western blot analysis; type: functional, cell-based; conditions: dose 0.17-1.5 µM
[4] = tested on: HCT-116; test: Induction of apoptosis in human HCT-116 cells assessed as early apoptotic cells at 1.5 uM incubated for 48 hrs by PI and annexin V-FITC staining based flow cytometry (reference value: 3.4%); type: functional
[5] = tested on: MC-38; test: Antitumor activity against mouse MC38 cells xenografted in C57BL/6 mouse assessed as necrosis in tumor at 50 to 100 mg/kg, ip administered every 2 days for 16 consecutive days measured by H and E staining method; type: functional, organism-based; conditions: dose 50-100 mg/kg, time 16.0 day
[6] = tested on: MC38; test: Inhibition of HDAC in mouse MC-38 cells assessed as increase in acetylated alpha-tubulin expression expression at 0.17 to 1.5 uM incubated for 48 hrs by Western blot analysis; type: cell-based; conditions: dose 0.17-1.5 µM
[7] = target: T1, Histone deacetylase (Homo sapiens) (UniProt Q13547+O15379+Q9UBN7+Q92769+Q9UQL6+Q8WUI4+Q9BY41+Q96DB2+P56524+Q9UKV0+Q969S8); test: Inhibition of HDAC in human HCT-116 cells assessed as increase in acetylated HH3 expression expression at 0.17 to 1.5 uM incubated for 48 hrs by Western blot analysis; type: cell-based; conditions: dose 0.17-1.5 µM
[8] = target: T1, Histone deacetylase (Homo sapiens); test: Inhibition of HDAC in human HCT-116 cells assessed as increase in acetylated alpha-tubulin expression expression at 0.17 to 1.5 uM incubated for 48 hrs by Western blot analysis; type: cell-based; conditions: dose 0.17-1.5 µM
[9] = tested on: MC-38; test: Antitumor activity against mouse MC38 cells xenografted in C57BL/6 mouse assessed as decrease in tumor weight at 50 to 100 mg/kg, ip administered every 2 days for 16 consecutive days; type: functional, organism-based; conditions: dose 50-100 mg/kg, time 16.0 day
[10] = tested on: HEL; test: Antiproliferative activity against human HEL cells after 48 hrs by CCK-8 assay; type: functional, cell-based
[11] = tested on: MC-38; test: Antitumor activity against mouse MC38 cells xenografted in C57BL/6 mouse assessed as decrease in tumor volume at 50 to 100 mg/kg, ip administered every 2 days for 16 consecutive days; type: functional, organism-based; conditions: dose 50-100 mg/kg, time 16.0 day
[12] = tested on: MC-38; test: Antitumor activity against mouse MC38 cells xenografted in C57BL/6 mouse assessed as tumor growth inhibition at 50 mg/kg, ip administered every 2 days for 16 consecutive days; type: functional; conditions: MC-38, 384 h, time 16 day, read-out: TGI
[13] = tested on: HCT-116; test: Downregulation of SPT16 expression in human HCT-116 cells at 0.17 to 1.5 uM measured after 24 hrs by Western blot analysis; type: functional, cell-based; conditions: dose 0.17-1.5 µM
[14] = target: T2, Histone deacetylase 8 (Homo sapiens, UniProt Q9BY41); test: Inhibition of HDAC8 in human HeLa cell nuclear extract using Boc-Lys(Ac)-AMC or Boc-Lys(triflouroacetyl)-AMC as substrate incubated for 30 mins and measured by fluorescence assay; type: cell-free
T2 sequence (Q9BY41 whole entry): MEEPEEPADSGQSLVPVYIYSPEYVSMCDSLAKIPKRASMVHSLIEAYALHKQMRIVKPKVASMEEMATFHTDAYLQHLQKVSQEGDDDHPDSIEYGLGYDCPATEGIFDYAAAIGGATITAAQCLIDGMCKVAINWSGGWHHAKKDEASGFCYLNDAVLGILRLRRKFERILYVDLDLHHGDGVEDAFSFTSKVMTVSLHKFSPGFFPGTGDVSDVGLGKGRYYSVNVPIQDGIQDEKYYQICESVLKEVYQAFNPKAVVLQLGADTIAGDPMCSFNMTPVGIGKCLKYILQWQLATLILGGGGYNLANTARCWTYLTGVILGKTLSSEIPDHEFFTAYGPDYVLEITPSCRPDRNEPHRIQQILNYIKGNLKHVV

[15] = tested on: Calf thymus DNA; test: Binding affinity to calf thymus DNA at 50 uM incubated for 30 mins and measured by fluorescence spectroscopy; type: nucleic-acid assay; conditions: Bos taurus
[16] = tested on: MC-38; test: Antiproliferative activity against mouse MC38 cells after 48 hrs by CCK-8 assay; type: functional, cell-based; conditions: MC-38, 48 h
[17] = tested on: HCT-116; test: Induction of apoptosis in human HCT-116 cells assessed as late apoptotic cells at 1.5 uM incubated for 48 hrs by PI and annexin V-FITC staining based flow cytometry (reference value: 3.4%); type: functional
[18] = tested on: MC-38; test: Antitumor activity against mouse MC38 cells xenografted in C57BL/6 mouse assessed as induction of apoptosis in tumor at 50 to 100 mg/kg, ip administered every 2 days for 16 consecutive days measured by TUNEL staining based assay; type: functional, organism-based; conditions: dose 50-100 mg/kg, time 16.0 day
[19] = tested on: DNA; test: Binding affinity to pBR322 DNA (unknown origin) at 10 to 50 uM after 30 mins by Agarose gel electrophoresis; type: nucleic-acid assay; conditions: dose 10-50 µM
[20] = tested on: K562; test: Antiproliferative activity against human K562 cells after 48 hrs by CCK-8 assay; type: functional, cell-based; conditions: K562, 48 h

- IC50 [1]: 470 nM
- IC50 [2]: 38 nM
- inhibition [7]: Active
- inhibition [8]: Active
- IC50 [14]: 3030 nM
- Activity [15]: Active
- Activity [19]: Active
- IC50 [20]: 910 nM
Structure (SMILES): O=C(CCCCCOc1cccc(-c2nnc(-c3ccccc3)s2)c1)NO
- Activity [3]: Active
- Activity [4]: 38.5%
- Activity [5]: Active
- inhibition [6]: Active
- Activity [9]: Active
- IC50 [10]: 280 nM
- Activity [11]: Active
- inhibition in vivo at 50 mg/kg [12]: 66%
- Activity [13]: Active
- IC50 [16]: 430 nM
- Activity [17]: 38.5%
- Activity [18]: Active
